# In PMC3772825, “Development of Novel ^123I-Labeled Pyridyl Benzofuran Derivatives for SPECT Imaging of β-Amyloid Plaques in Alzheimer’s Disease” (PLoS ONE, 2013):
# Read-outs that look alike come from different tables or passages of the source.
# What was measured:
# [1] = Biodistribution in normal mice; format: in vivo, ddY mice; settings: for time of peak brain uptake: postinjection
# Description: While under anesthesia with 2% isoflurane, ddY mice were injected directly into a tail vein with 100 µL of 10% EtOH containing ^125I-labeled pyridyl benzofuran derivatives (37 kBq). The mice (male, n = 5 for each time point) were sacrificed at 2, 10, 30, and 60 min postinjection. The organs of interest were removed and weighed, and radioactivity was measured with an automatic gamma counter (COBRAII; Packard). Percentage dose per organ was calculated by comparing the tissue counts to suitably diluted aliquots of the injected material. The %dose/g of samples was calculated by comparing the sample counts with the count of the diluted initial dose.
# [2] = system: Aβ plaques; test: In vitro autoradiography using human AD brain sections; format: binding; settings: postmortem human AD brain sections, 1 h at room temperature
# Description: Postmortem brain tissues from an anonymous autopsy-confirmed case of AD (person) were obtained from the Graduate School of Medicine, Kyoto University. Six-micrometer-thick serial sections of paraffin-embedded blocks were used for in vitro autoradiography. The sections were incubated with ^125I-labeled tracers (444 kBq/50 µL) for 1 h at room temperature, then dipped in saturated Li2CO3 in 40% EtOH (two 2-min washes), washed with 40% EtOH (one 2-min wash), and rinsed with water for 30 s. After drying, the ^125I-labeled sections were exposed to a BAS imaging plate (Fuji Film) overnight. Autoradiographic images were obtained using a BAS5000 scanner system (Fuji Film). After autoradiographic examination, the same sections were immunostained using an amyloid β-protein immunohistochemical staining kit (Wako Pure Chemical Industries, Ltd.).
# [3] = target: T1, Aβ(1–42) aggregates (Homo sapiens, UniProt P05067); test: In vitro binding assay with Aβ(1–42) aggregates, competition with [125I]IMPY; settings: mean ± SEM of three independent determinations; Cheng-Prusoff
# T1 construct: Aβ(1–42) was purchased from the Peptide Institute (Osaka, Japan); purchased Peptide Institute (Osaka, Japan)
# T1 sequence (P05067 672-713 limits assumed): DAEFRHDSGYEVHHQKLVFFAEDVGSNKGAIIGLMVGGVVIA
# Description: Aggregation was carried out by gently dissolving the peptide (0.25 mg/mL) in a buffer solution (pH 7.4) containing 10 mM sodium phosphate and 1 mM EDTA. […] The mixture was then filtered through Whatman GF/B filters using a Brandel M-24 cell harvester, and the radioactivity of the filters containing the bound ^125I ligand was measured in a γ counter. Values for the half-maximal inhibitory concentration (IC50) were determined from displacement curves of three independent experiments using GraphPad Prism 5.0, and those for the inhibition constant (Ki) were calculated using the Cheng-Prusoff equation [26]: […]
# [4] = target: T2, Aβ plaques (Homo sapiens, UniProt P05067); test: Small-animal SPECT/CT in Tg2576 and wild-type mice; format: in vivo, Tg2576 transgenic mice; settings: average ± SD
# T2 sequence (P05067 672-711 limits assumed): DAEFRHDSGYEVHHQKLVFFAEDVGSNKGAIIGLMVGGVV
# Description: Dynamic SPECT scans were performed on a dedicated small-animal SPECT scanner (FX3300, Gamma Medica-Ideas). Tg2576 transgenic mice (28 months, female, n = 3) and wild-type mice (28 months, female, n = 3) were used as an Alzheimer’s model and an age-matched control, respectively. Briefly, the animals were initially anesthetized with 2% isoflurane. When fully anesthetized, an animal was placed on the scanner bed, with a nose cone used to maintain anesthesia with 2% isoflurane throughout the experiment. [^123I]8 (20.5–26.5 MBq) in 10% aqueous EtOH solution containing 0.1% Tween80 was injected into a tail vein. Dynamic data were acquired over a period of 60 min after the injection, followed by the acquisition of CT data over a period of 5 min. The SPECT data were reconstructed using a 3-dimensional ordered subsets expectation maximization (3D OSEM) algorithm (5 iteration, 8 subsets). The SPECT scan time was sorted by a 30-s time frame in each 1-min interval (total, 60 frames for a total scan time of 60 min). […] For statistical analyses, regions of interest (ROIs) were manually placed over the frontal cortex (FR) and cerebellum (CE) on the summed SPECT images of [^123I]8 in Tg2576 (n = 3) and wild-type (n = 3) mice. Identification of anatomical structures was guided by the stereotaxic mouse brain atlas. […]
# [5] = In vivo stability in normal mice (intact form in plasma by RP-HPLC); design: species or system ddY mice; settings: 30 min postinjection, i.v.
# Description: [^125I]8 (0.11 MBq, 100 µL) was injected into the tail vein of ddY mice. The mice were sacrificed at 2, 10, and 30 min after the injection (male, n = 3 for each time point). The blood samples were centrifuged at 3,500 rpm for 10 min to separate plasma. Plasma samples were mixed with equal volumes of acetonitrile followed by centrifugation at 4,500 rpm for 10 min to remove the denatured proteins. The supernatant was filtrated using 0.45 µm filter (Millipore; Billerica, MA, USA). Then, the filtrate was analyzed by RP-HPLC.
# [6] = target: T2, Aβ plaques; test: Ex vivo autoradiography of transgenic mouse brain; settings: brains of Tg2576 mice after SPECT/CT; not in the wild-type control
# Source text: The animals were killed by decapitation after the SPECT analysis. Brains were immediately removed and frozen in a dry ice/hexane bath. Sections of 20 µm were cut and exposed to a BAS imaging plate (Fuji Film, Tokyo, Japan) overnight. Ex vivo film autoradiograms were thus obtained. After autoradiographic examination, the same sections were stained by thioflavin-S to confirm the presence of Aβ plaques. For staining with thioflavin-S, sections were immersed in a 0.125% thioflavin-S solution containing 50% EtOH for 5 min and washed in 50% EtOH. After drying, the sections were examined using a microscope (Eclipse 80i; Nikon) equipped with a B-2A filter set (excitation, 450–490 nm; diachronic mirror, 505 nm; long-pass filter, 520 nm).
# [7] = In vitro stability in mouse plasma; format: in vitro ADME; settings: incubation 1 h at 37°C, RP-HPLC
# Description: [^125I]8 (11 kBq, […]) was added to the mouse plasma ([…]), and the plasma samples were incubated at 37°C for 1 h. After incubation, plasma samples were mixed with equal volumes of acetonitrile followed by centrifugation at 4,500 rpm for 10 min to remove the denatured proteins. The supernatant was filtrated using a 0.45 µm filter (Millipore; Billerica, MA, USA). Then, the filtrate was analyzed by RP-HPLC.
# [8] = design: method as in PMID 17210465; settings: ref [31]; cited from earlier work
smiles,measurement,setting,value
"Nc1ccc(-c2cc3cc(I)ccc3o2)cn1 [Compound 7, 5-(5-Iodobenzofuran-2-yl)pyridin-2-amine]",time of peak brain uptake,[1]; i.v.,10 min
same,brain2min/brain60 min ratio,[1]; washout from the brain,1.30
same,in vitro autoradiography of AD brain sections,[2],nonspecific binding in white matter
same,Ki,[3],10.3 ± 1.48 nM
"CNc1ccc(-c2cc3cc(I)ccc3o2)cn1 [Compound 8, 5-(5-Iodobenzofuran-2-yl)-N-methylpyridin-2-amine]",brain radioactivity at 60 min postinjection,"[1]; i.v., 60 min",1.30 %ID/g
same,time of peak brain uptake,[1]; i.v.,2 min
same,"mean FR/CE ratio (frontal cortex to cerebellum), SPECT",[4]; Tg2576 mice (n = 3),1.34±0.07
same,"mean FR/CE ratio (frontal cortex to cerebellum), SPECT",[4]; wild-type mice (n = 3),1.01±0.03
same,percent of the intact form in plasma after injection,[5],20.7%
same,"ex vivo autoradiography, labeling of Aβ plaques",[6],extensive labeling of Aβ plaques
same,radioactivity existing as intact form in mouse plasma,[7],77.4%
same,Ki,[3],2.94 ± 0.22 nM
"CN(C)c1ccc(-c2cc3cc(I)ccc3o2)cn1 [Compound 9, 5-(5-Iodobenzofuran-2-yl)-N,N-dimethylpyridin-2-amine]",time of peak brain uptake,[1]; i.v.,10 min
same,Ki,[3],2.36 ± 0.53 nM
"CNc1ccc(/C=C/c2ccc(OCCOCCOCC[18F])nc2)cc1 [[^18F]AV-45, (E)-4-(2-(6-(2-(2-(2-[^18F]fluoroethoxy)ethoxy)ethoxy)pyridin-3-yl)vinyl)-N-methylaniline]",brain2min/brain60 min ratio,[8],3.8
